Assay results as given in patent US10052318B2, “Glutamate agents in the treatment of mental disorders” (YALE UNIVERSITY, priority 2005, dated 2018).

Experiments:
[1] = tested on: glial glutamate uptake transporter; settings: Rothstein et al., Nature 2005; cited from earlier work
C57BL/6J mice = assay: Tail suspension test; assay type: in vivo; settings: after 7 days, 1 injection/day, versus saline
[2] = tested on: animal model of Amyotrophic Lateral Sclerosis (ALS); settings: by increasing glutamate transport, L-[3H] glutamate uptake into cortical membrane; Rothstein et al. 2005; cited from earlier work
[3] = tested on: transgenic mice expressing cholera toxin subunit in dopamine D1 receptor-expressing limbic cortical cells; settings: cited from earlier work; for perseverative (OCD-like) behaviors: baseline behaviors of the transgenic mice
[4] = tested on: patient with SRI-refractory OCD; assay: Case report two: N-acetylcysteine augmentation of fluvoxamine in SRI-refractory OCD; assay type: in vivo, human
Description: A person presented to our clinic seeking help for persistent and severe OCD symptoms. Diagnosis of OCD was confirmed using the Structured Clinical Interview for DSM-IV Axis I Disorders-Clinician Version. First et al., Structured clinical interview for DSM-IV Axis I Disorders (SCID-I Clinician Version), American Psychiatric Press, Inc., Washington, D.C., 1997. After informed consent, a person was admitted to the Clinical Neuroscience Research Unit of the Abraham Ribicoff Research Facilities (New Haven, Conn.) and treated clinically with an off-label use of NAC augmentation of fluvoxamine. OCD symptoms were followed using weekly Yale-Brown Obsessive-Compulsive Scale (Y-BOCS) ratings. NAC (United States Pharmacia grade and in capsule form) was initiated at a starting dose of 600 mg PO daily and titrated upward to a total daily dose of 3 grams per day over 6 weeks. NAC was continued at the dose of 3 grams per day for an additional seven weeks. Fluvoxamine 300 mg was continued throughout the NAC treatment period. A person remained on the inpatient unit throughout the treatment period and received supportive psychotherapy. […] In fact, they were resistant to implementing behavioral interventions given the past failure of such interventions.

[5] = tested on: patient with Trichotillomania; assay: Case report: riluzole addition in trichotillomania; assay type: in vivo, human
[6] = tested on: patient with severe, chronic TTM; assay: Case report one: riluzole in trichotillomania and recurrent major depression; assay type: in vivo, human
[7] = tested on: patients with treatment-resistant depression; assay: Riluzole addition in control group with treatment-resistant depression; settings: control group with treatment-resistant depression alone
[8] = tested on: patients with anxiety symptoms; assay: Riluzole addition in patients with anxiety and mood symptoms (HAM-A); assay type: in vivo, human

CO/N=C(\C(=O)N[C@@H]1C(=O)N2C(C(=O)O)=C(CSc3nc(=O)c(=O)[nH]n3C)CS[C@H]12)c1csc(N)n1 [Ceftriaxone, ceftriaxone]
upregulation of the glial glutamate transporter [1]: upregulated the glial glutamate transporter more so than many other drugs | decrease in the immobility time (C57BL/6J mice; C57BL/6J males, 10 animals/group): ~20% | bouts of immobility (C57BL/6J mice): decreased bouts of immobility | latency (C57BL/6J mice): trend for increased latency | neuroprotection [2]: neuroprotective

C[C@]12N[C@H](Cc3ccccc31)c1ccccc12 [MK-801]
perseverative (OCD-like) behaviors [3]: worsen

CC(=O)N[C@@H](CS)C(=O)O [NAC, N-acetylcysteine]
Y-BOCS score ([4]; NAC 600 mg daily titrated to 3 grams per day over 6 weeks, continued seven weeks, fluvoxamine 300 mg): dramatically decreased | side effects ([4]; NAC up to 3 grams per day): a few episodes of mild, brief right hand tingling and a single day of xerostomia | routine lab monitoring ([4]; over the course of admission): no further abnormalities | OCD symptoms at follow-up ([4]; two month follow-up visit, same dose of NAC and fluvoxamine): remained improved

NS(=O)(=O)c1cccc2c1c([N+](=O)[O-])cc1nc(O)c(O)nc12 [NBQX]
perseverative (OCD-like) behaviors [3]: does not affect | worsening of OCD-like behaviors induced by MK-801 ([3]; transgenic mice given MK-801): does not attenuate

Nc1nc2ccc(OC(F)(F)F)cc2s1 [Riluzole, riluzole]
Trichotillomania symptoms ([5]; A person, riluzole up to 100 mg twice a day): cessation of Trichotollomania symptoms | Reduction in PITS score ([5]; after 6 weeks of riluzole addition to Lexapro 30 mg, 50 mg titrated to 100 mg twice a day): 74% | Reduction in MGH Pulling Scale Score ([5]; after 12 weeks of treatment with riluzole): > 35% | urges to pull hair at follow-up ([6]; 72 weeks after initiating riluzole, 100 mg twice a day): minimal and readily ignored | TTM ratings (PITS, MGH Hairpulling Scale) ([6]; at presentation PITS 23, MGH 17, after up-titration of riluzole): corresponding fall | HAM-D at presentation ([6]; before riluzole, on escitalopram 30 mg daily): 26 | HAM-D ([6]; week 16, riluzole titrated from 50 mg twice a day to 200 mg daily): 7 | urges to pull hair ([6]; with up-titration of riluzole to 150 mg and then 200 mg daily): vanished entirely | HAM-D scores in response to riluzole [7]: significant improvement | reduction in HAM-A scores post study treatment ([8]; Subjects P3, P5, P6, P7, P11, P12): ≥ 35% | HAM-A scores for the group over time ([8]; riluzole 50 mg twice a day): significantly improved | tolerability / adverse effects ([8]; riluzole 50 mg twice a day): well tolerated with no serious adverse effects noted | Mean Pre-Treatment HAM-A ([8]; thirteen participants, before riluzole): 18.2+/−6.2 | Mean Post-Treatment HAM-A ([8]; thirteen participants, riluzole 50 mg twice a day added to existing pharmacotherapy): 12.8+/−7.2
